Values quoted from earlier work, collected in patent US12268699B2, “Transdermal delivery of tetrahydrocannabinol” (Pike Therapeutics Inc., priority 2019, dated 2025).
pKi: −log10 of the molar value. Like-named read-outs stand apart in the source and are kept apart here.

Legend:
CB2 receptor over CB1 = settings: given as ×, -fold or times
[1] = tested on: complete Freund's adjuvant-induced monoarthritic knee join mode; settings: transdermal
CB1 = CB1 (Homo sapiens, UniProt P21554)
CB2 = CB2 (Homo sapiens, UniProt P34972)
Chain of CB2 (P34972 whole entry, species assumed): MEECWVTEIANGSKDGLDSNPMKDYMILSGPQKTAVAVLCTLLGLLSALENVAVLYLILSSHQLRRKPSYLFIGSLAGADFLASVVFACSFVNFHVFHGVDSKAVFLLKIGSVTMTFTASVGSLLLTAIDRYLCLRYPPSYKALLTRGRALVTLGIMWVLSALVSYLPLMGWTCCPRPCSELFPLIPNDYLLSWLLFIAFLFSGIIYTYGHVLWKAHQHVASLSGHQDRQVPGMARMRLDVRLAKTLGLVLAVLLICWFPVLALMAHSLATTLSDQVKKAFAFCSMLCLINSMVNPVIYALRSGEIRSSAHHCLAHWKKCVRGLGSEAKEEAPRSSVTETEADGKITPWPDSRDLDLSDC

[2] = in 96 hrs. with 6% Brij O20

Chain of CB1 (P21554 whole entry, species assumed): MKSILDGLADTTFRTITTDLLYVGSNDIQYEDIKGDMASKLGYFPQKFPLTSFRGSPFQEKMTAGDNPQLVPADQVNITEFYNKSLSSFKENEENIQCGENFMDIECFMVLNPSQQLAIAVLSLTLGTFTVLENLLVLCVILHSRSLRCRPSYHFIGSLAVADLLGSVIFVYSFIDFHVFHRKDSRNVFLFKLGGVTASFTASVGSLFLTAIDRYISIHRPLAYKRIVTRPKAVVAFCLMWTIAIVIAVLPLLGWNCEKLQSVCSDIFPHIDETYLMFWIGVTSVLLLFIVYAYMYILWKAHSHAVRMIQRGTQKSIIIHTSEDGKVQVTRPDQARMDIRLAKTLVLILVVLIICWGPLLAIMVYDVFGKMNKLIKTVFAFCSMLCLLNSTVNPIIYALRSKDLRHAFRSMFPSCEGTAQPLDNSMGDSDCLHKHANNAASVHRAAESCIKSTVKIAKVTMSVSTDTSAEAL

In the case of `CCCCCCC(C)(C)c1cc(O)c2c(c1)oc(=O)c1ccc(OC)cc12` [AM-1710], the “selectivity for CB2 over CB1” value (CB2 receptor over CB1) is given as 54.

In the case of `C=C(C)[C@@H]1CCC(C)=C[C@H]1c1c(O)cc(CCCCC)cc1O` [CBD, 2-[(1R,6R)-6-isopropenyl-3-methylcyclohex-2-en-1-yl]-5-pentylbenzene-1,3-diol], the knee-joint swelling ([1]; dose of 6.2 mg/day) is given as “reduce knee-joint swelling” and the knee-joint swelling ([1]; dose of 62 mg/day) is given as “failed to yield any additional improvement”.

In the case of `CCCn1cc(C(=O)c2ccc(C)c3ccccc23)c2ccccc21` [JWH-120], the “selectivity for CB2 over CB1” value (CB2 receptor over CB1) is listed as 173.

In the case of `CCCn1c(C)c(C(=O)c2ccc(C)c3ccccc23)c2ccccc21` [JWH-148], the “selectivity for CB2 over CB1” value (CB2 receptor over CB1) is given as “more than 8”.

In the case of `CCCCCCC(C)(C)c1cc(OC)c2c(c1)OC(C)(C)C1CCC(O)CC21` (stereo not drawn) [JWH-350, 11-nor-1-methoxy-3-(1′,1′-dimethylheptyl)-9α-hydroxyhexahydrocannabinol], the “selectivity for CB2 over CB1” value (CB2 receptor over CB1) is given as 33.

For `CCCCCn1cc(C(=O)c2ccc(Cl)c3ccccc23)c2ccccc21` [JWH-398], the pKi (CB1) is given as 8.64 and the pKi (CB2) is given as 8.55.

In the case of `CCCCCn1cc(C(=O)c2cccc3cccc(Br)c23)c2ccccc21` [JWH-424], the pKi (CB1) is given as 7.68 and the pKi (CB2) is given as 8.26.

For `CCCCCc1cc(O)c2c(c1)OC(C)(C)[C@@H]1CCC(C)=C[C@@H]21` [naturally derived delta-9-THC, (−)-(6aR,10aR)-6,6,9-Trimethyl-3-pentyl-6a,7,8,10a-tetrahydro-6H-benzo[c]chromen-1-ol], the skin permeability [2] is given as 20 µg.
